Each structure is given as a SMILES string. Where “and” joins values, the source holds several entries; their conditions need not be identical. Identical values can stand only once. Results filed as inconclusive are left out.

The text below walks through data of PubChem BioAssay AID272 (DTP/NCI, 2004).

This assay concerns Lewis lung carcinoma i.m., BDF1 mice, T/C %. The assay can be described thus: NCI In Vivo Anticancer Drug Screen. Data for tumor model Lewis Lung Carcinoma (intramuscular) in B6D2F1 (BDF1) mice. To be noted: schedule: Q01DX011 (ip). In a few lines: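 Mice carrying transplantable tumours received test compound. Survival or tumour size was recorded and expressed as the treated-group value (T) divided by the vehicle-treated control-group value (C).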

[1] abbreviates: endpoint: median survival time, dose: 25.0 mg/kg/injection, vehicle: water, higher = longer survival.
[2] abbreviates: endpoint: median survival time, dose: 50.0 mg/kg/injection, vehicle: Klucel (hydroxypropylcellulose) (HPC), higher = longer survival.
Where [3] appears, read: endpoint: median survival time, dose: 50.0 mg/kg/injection, vehicle: water, higher = longer survival.
The mark [4] stands for this setting: endpoint: median survival time, dose: 100.0 mg/kg/injection, vehicle: Klucel (hydroxypropylcellulose) (HPC), higher = longer survival.
[5] abbreviates: endpoint: median survival time, dose: 2.0 mg/kg/injection, vehicle: saline, higher = longer survival.
The mark [6] stands for this setting: endpoint: mean tumor weight, dose: 0.25 mg/kg/injection, vehicle: saline, higher = larger tumour.
Setting [7] is: endpoint: mean tumor weight, dose: 0.5 mg/kg/injection, vehicle: saline, higher = larger tumour.
The mark [8] stands for this setting: endpoint: median survival time, dose: 0.5 mg/kg/injection, vehicle: saline, higher = longer survival.

`CC(=O)OCC1OC(n2ncc(=O)[nH]c2=O)C(OC(C)=O)C1OC(C)=O` (stereo not drawn): the T/C is, setting by setting: (endpoint: mean tumor weight (est.), dose: 25.0 mg/kg/injection, vehicle: water, higher = larger tumour) 89 % of control; (endpoint: mean tumor weight (est.), dose: 50.0 mg/kg/injection, vehicle: water, higher = larger tumour) 62 % of control; (endpoint: mean tumor weight (est.), dose: 200.0 mg/kg/injection, vehicle: water, higher = larger tumour) 75 % of control; (endpoint: mean tumor weight (est.), dose: 400.0 mg/kg/injection, vehicle: water, higher = larger tumour) 85 % of control; (endpoint: mean tumor weight (est.), dose: 800.0 mg/kg/injection, vehicle: water, higher = larger tumour) 40 % of control; (endpoint: mean tumor weight (est.), dose: 1600.0 mg/kg/injection, vehicle: water, higher = larger tumour) 56 % of control. The T/C reads like this: (endpoint: mean tumor weight, dose: 25.0 mg/kg/injection, vehicle: Klucel (hydroxypropylcellulose) (HPC), higher = larger tumour) 78 % of control; (endpoint: mean tumor weight, dose: 50.0 mg/kg/injection, vehicle: Klucel (hydroxypropylcellulose) (HPC), higher = larger tumour) 71 % of control; (endpoint: mean tumor weight, dose: 100.0 mg/kg/injection, vehicle: Klucel (hydroxypropylcellulose) (HPC), higher = larger tumour) 65 % of control; (endpoint: mean tumor weight, dose: 200.0 mg/kg/injection, vehicle: Klucel (hydroxypropylcellulose) (HPC), higher = larger tumour) 68 % of control; (endpoint: mean tumor weight, dose: 400.0 mg/kg/injection, vehicle: Klucel (hydroxypropylcellulose) (HPC), higher = larger tumour) 93 % of control; (endpoint: mean tumor weight, dose: 800.0 mg/kg/injection, vehicle: Klucel (hydroxypropylcellulose) (HPC), higher = larger tumour) 37 % of control. Besides, the T/C was 110 % of control (endpoint: median survival time, dose: 25.0 mg/kg/injection, vehicle: Klucel (hydroxypropylcellulose) (HPC), higher = longer survival); 92 % of control under setting [1]; 94 % of control under setting [2]; 103 % of control under setting [3]; 112 % of control under setting [4]; 98 % of control (endpoint: median survival time, dose: 200.0 mg/kg/injection, vehicle: water, higher = longer survival). Besides, the T/C reads like this: (endpoint: median survival time, dose: 400.0 mg/kg/injection, vehicle: Klucel (hydroxypropylcellulose) (HPC), higher = longer survival) 104 % of control; (endpoint: median survival time, dose: 400.0 mg/kg/injection, vehicle: water, higher = longer survival) 121 % of control; (endpoint: median survival time, dose: 800.0 mg/kg/injection, vehicle: Klucel (hydroxypropylcellulose) (HPC), higher = longer survival) 124 % of control; (endpoint: median survival time, dose: 800.0 mg/kg/injection, vehicle: water, higher = longer survival) 88 % of control; (endpoint: median survival time, dose: 1600.0 mg/kg/injection, vehicle: water, higher = longer survival) 111 % of control.

In the case of `CC/C(=C(/CC)c1ccc(O)cc1)c1ccc(O)cc1`, the T/C reads like this: (endpoint: mean tumor weight, dose: 25.0 mg/kg/injection, vehicle: steriod suspending solution, higher = larger tumour) 43 % of control; (endpoint: mean tumor weight, dose: 50.0 mg/kg/injection, vehicle: steriod suspending solution, higher = larger tumour) 29 % of control; (endpoint: mean tumor weight, dose: 100.0 mg/kg/injection, vehicle: steriod suspending solution, higher = larger tumour) 14 % of control and 34 % of control; (endpoint: median survival time, dose: 25.0 mg/kg/injection, vehicle: steriod suspending solution, higher = longer survival) 86 % of control; under setting [1], 91 % of control and 97 % of control; (endpoint: median survival time, dose: 50.0 mg/kg/injection, vehicle: steriod suspending solution, higher = longer survival) 106 % of control. For the same compound, the T/C reads like this: under setting [3], 92 % of control; (endpoint: median survival time, dose: 100.0 mg/kg/injection, vehicle: steriod suspending solution, higher = longer survival) 104 % of control; (endpoint: median survival time, dose: 100.0 mg/kg/injection, vehicle: water, higher = longer survival) 97 % of control and 101 % of control.

On to `N=[N+]=CC(=O)OCC(N)C(=O)O` (stereo not drawn), for which the T/C (endpoint: mean tumor weight, dose: 2.0 mg/kg/injection, vehicle: saline, higher = larger tumour) is 94 % of control; the T/C (endpoint: mean tumor weight, dose: 4.0 mg/kg/injection, vehicle: saline, higher = larger tumour) is 71 % of control; the T/C (endpoint: mean tumor weight, dose: 8.0 mg/kg/injection, vehicle: saline, higher = larger tumour) was 27 % of control; the T/C under setting [5] was 96 % of control and 107 % of control; the T/C (endpoint: median tumor weight (est.), dose: 2.0 mg/kg/injection, vehicle: saline, higher = larger tumour) is 79 % of control; the T/C (endpoint: median tumor weight (est.), dose: 8.0 mg/kg/injection, vehicle: saline, higher = larger tumour) was 50 % of control.

Turning to `CN(C)C(=S)S`, the T/C is 58 % of control and 59 % of control (endpoint: mean tumor weight, dose: 125.0 mg/kg/injection, vehicle: saline, higher = larger tumour); 57 % of control (endpoint: mean tumor weight, dose: 250.0 mg/kg/injection, vehicle: saline, higher = larger tumour); 102 % of control (endpoint: median survival time, dose: 125.0 mg/kg/injection, vehicle: saline, higher = longer survival).

`CC[C@](O)(C(=O)O)c1cc2n(c(=O)c1CO)Cc1cc3ccccc3nc1-2`: the T/C was 95 % of control (endpoint: mean tumor weight, dose: 0.06 mg/kg/injection, vehicle: saline, higher = larger tumour); 96 % of control (endpoint: mean tumor weight, dose: 0.12 mg/kg/injection, vehicle: saline, higher = larger tumour); 101 % of control under setting [6]; 91 % of control under setting [7]; 106 % of control (endpoint: mean tumor weight, dose: 1.0 mg/kg/injection, vehicle: saline, higher = larger tumour); 105 % of control (endpoint: median survival time, dose: 0.06 mg/kg/injection, vehicle: saline, higher = longer survival). For the same compound, the T/C was 116 % of control (endpoint: median survival time, dose: 0.12 mg/kg/injection, vehicle: saline, higher = longer survival); 118 % of control under setting [8]; 102 % of control and 113 % of control and 124 % of control (endpoint: median survival time, dose: 1.0 mg/kg/injection, vehicle: saline, higher = longer survival); 214 % of control under setting [5].

In the case of `Clc1ncnc2nc[nH]c12`, the T/C reads like this: (endpoint: mean tumor weight (est.), dose: 6.25 mg/kg/injection, vehicle: other, higher = larger tumour) 76 % of control; (endpoint: mean tumor weight (est.), dose: 12.5 mg/kg/injection, vehicle: other, higher = larger tumour) 91 % of control; (endpoint: mean tumor weight (est.), dose: 25.0 mg/kg/injection, vehicle: other, higher = larger tumour) 105 % of control; (endpoint: mean tumor weight (est.), dose: 50.0 mg/kg/injection, vehicle: other, higher = larger tumour) 89 % of control; (endpoint: mean tumor weight (est.), dose: 100.0 mg/kg/injection, vehicle: other, higher = larger tumour) 74 % of control; (endpoint: mean tumor weight, dose: 3.13 mg/kg/injection, vehicle: other, higher = larger tumour) 119 % of control. The T/C reads like this: (endpoint: mean tumor weight, dose: 6.25 mg/kg/injection, vehicle: other, higher = larger tumour) 103 % of control; (endpoint: mean tumor weight, dose: 12.5 mg/kg/injection, vehicle: other, higher = larger tumour) 98 % of control; (endpoint: mean tumor weight, dose: 25.0 mg/kg/injection, vehicle: other, higher = larger tumour) 50 % of control; (endpoint: mean tumor weight, dose: 50.0 mg/kg/injection, vehicle: other, higher = larger tumour) 73 % of control; (endpoint: median survival time, dose: 3.13 mg/kg/injection, vehicle: other, higher = longer survival) 96 % of control and 110 % of control; (endpoint: median survival time, dose: 25.0 mg/kg/injection, vehicle: other, higher = longer survival) 96 % of control. The T/C (endpoint: median survival time, dose: 50.0 mg/kg/injection, vehicle: other, higher = longer survival) was 100 % of control and 116 % of control; the T/C (endpoint: median survival time, dose: 100.0 mg/kg/injection, vehicle: other, higher = longer survival) is 88 % of control.

As to `Clc1ccc(C(c2ccccc2Cl)C(Cl)Cl)cc1` (stereo not drawn), the T/C runs as follows: under setting [2], 88 % of control; under setting [4], 95 % of control.

Regarding `COC(=O)C[C@](O)(CCC(C)(C)O)C(=O)O[C@@H]1C(OC)=C[C@]23CCCN2CCc2cc4c(cc2[C@H]13)OCO4`, the T/C under setting [6] is 103 % of control; the T/C under setting [7] is 104 % of control; the T/C (endpoint: mean tumor weight, dose: 0.5 mg/kg/injection, vehicle: water, higher = larger tumour) is 75 % of control; the T/C (endpoint: mean tumor weight, dose: 1.0 mg/kg/injection, vehicle: water, higher = larger tumour) was 106 % of control; the T/C (endpoint: median survival time, dose: 0.25 mg/kg/injection, vehicle: saline, higher = longer survival) is 114 % of control; the T/C under setting [8] is 114 % of control.
